Patent US12221494B2, “Short synthetic peptides and their uses for treating retinal degenerative diseases and/or tissue injuries” (MacKay Memorial Hospital, priority 2019, dated 2025)

Columns and labels:
survivin mRNA = test: Real-time qPCR of survivin mRNA in C2C12 cells; type: cell-based, mouse; conditions: C2C12 cells in low serum media, 20 μM peptide, 6 h
Experimental: (§1) Total RNA was extracted from cells using TRIzol (Invitrogen). Synthesis of cDNA was performed with 1 μg of total RNA at 50° C. for 50 min using oligo(dT) primers and reverse transcriptase (Superscript III; Invitrogen). Briefly, quantification of cDNA was performed in the LightCycler (Roche, Mannheim, Germany) using the DNA Master SYBR Green I kit (Roche) with the following cycling conditions: initial denaturation at 95° C. for 10 min, followed by 40 cycles at 95° C. for 10 s, 60° C. for 10 s, and 72° C. for 10 s and a 5-min terminal incubation at 72° C. The data were calculated with AACt. The expression was then normalized against the expression of glyceraldehyde-3-phosphate dehydrogenase (GAPDH). The PCR primers were mouse Survivin sense, 5′-[…]-3′ (SEQ ID NO: 27), anti-sense, 5′-[…]-3′ (SEQ ID NO: 28) (accession number: NM_001012273.1; PCR product: 136 bp); mouse GAPDH sense, 5′-[…]-3′ (SEQ ID NO: 29), anti-sense, 5′-[…]-3′ (SEQ ID NO: 30) (NM_001289726.1; 149 bp). For analysis rabbit inflammatory gene expression, The PCR primers were rabbit TNF-αsense, 5′-[…]-3′ (SEQ ID NO: 31), anti-sense, 5′-[…]-3′ (SEQ ID NO: 32) (accession number: NM 001082263.1); rabbit IL-1βsense, 5′-[…]-3′(SEQ ID NO: 33), anti-sense, 5′-[…]-3′ (SEQ ID NO: 34) (NM 001082201.1); rabbit GAPDH sense, 5′-[…]-3′ (SEQ ID NO: 35), anti-sense, 5′-[…]-3′ (SEQ ID NO: 36) (accession number:NM 001082253.1). The cycle threshold (Ct) values of the PCR product and a GAPDH (Glyceraldehyde 3-phosphate dehydrogenase) control mRNA were used to calculate relative quantities of mRNA.
Similar to the approach in Example 1.2.1, the expression level of survivin mRNA in C2C12 cells was used as an indicator for the function of the 6-mer variants in Tables 3 to 5. Briefly, C2C12 cells in low serum media were treated with 20 μM the 6-mer variants for 6 h. […] The results also confirmed that alanine substation at the glutamic acid (E) residues would severely impair the 6-mer activity.

ARPE-19 cells = test: 4-HNE induced apoptosis of ARPE-19 cells (TUNEL staining); type: cell-based, human; conditions: 20 μM peptide pretreatment, 25 μM 4-HNE 24 h
Experimental: FIG. 6. The protective effect of the 6-mer dS on ARPE-19 cells against 4-HNE induced apoptosis. Cells were deprived of serum for 24 h and then pretreated with 20 μM 6-mer dS or solvent prior to exposed with 25 μM 4-HNE for additional 24 h. Apoptosis was determined by TUNEL staining (green dots) and counter-stained with Hoechst 33258 (blue dots). (A) Representative graphs from three independent experiments are shown. (B) The percentage of cell death was quantified by dividing the number of TUNEL-positive cells to a population of 2000 counted cells per condition. TUNEL, terminal deoxynucleotidyl transferase-mediated dUTP nick end-labeling. ^aP<0.00003 versus solvent-treated cells. ^bP<0.0006 versus solvent/4-HNE-treated cells.
Reference is made to FIG. 6, which depicts the protective effect of 6-mer dS or 6-mer dE on 4-hydroxy-2-nonenal (4-HNE) induced apoptosis of ARPE-19 cells. 4-hydroxy-2-nonenal (4-HNE) is a product of lipid oxidation, and is also considered as one of the most formidable reactive aldehydes capable of forming adduct with various cellular targets, particularly proteins involve in redox signaling.

TNF-α mRNA = test: Hyperosmotic stress-induced TNF-α gene expression in rabbit corneal epithelial cells (qPCR); type: cell-based; conditions: 20 μM peptide 6 h, then hyperosmotic medium (463 mOsM) 3 h, solvent 12.8-fold
Experimental: as §1
Limbal stem epithelial cells (LSEC) were isolated from 6-month-old New Zealand white rabbits and continuously cultivated for 14 days byDMEM/F-12basalmedium based cell-suspension culture to achieve corneal-liked epithelial cell differentiation as previously described (Ho et al., Stem Cells. 2013; 31:1775). […] After 3 h, quantitative real-time PCR was used to estimate HOP-induced Tumor necrosis factor (TNF)-α and nterleukin-1 beta (IL-1β) expressions. […]

## NH2-(D-Ser)-Leu-Gly-Ala-Glu-Gln-COOH (SLGAEQ; HELM PEPTIDE1{[dS].L.G.A.E.Q}$$$$V2.0; SMILES CC(C)C[C@H](NC(=O)[C@H](N)CO)C(=O)NCC(=O)N[C@@H](C)C(=O)N[C@@H](CCC(=O)O)C(=O)N[C@@H](CCC(N)=O)C(=O)O) [6-mer dS]
Survivin mRNA
  survivin mRNA induction, in words: increased the level of survivin mRNA
ARPE-19 cells
  4-HNE induced apoptosis (TUNEL), in words: could suppress 4-HNE induced apoptosis
TNF-α mRNA
  mRNA expression of TNF-α, in words: apparently repressed the mRNA expression of TNF-α and IL-1β
